Test results taken from a compilation of properties of binary mixtures (doi:10.1016/j.molliq.2020.112481).

Test: xn = mol fraction of the nth substance listed
Details: 100 kPa

OCCO + CCCC[n+]1ccn(C)c1.O=S(=O)([O-])C(F)(F)F
speed of sound (298.15 K, x2 = 0): 1655 m/s
viscosity (298.15 K, x2 = 0): 16.39 mPa·s
speed of sound (308.15 K, x2 = 0): 1631.5 m/s
viscosity (308.15 K, x2 = 0): 11.16 mPa·s
speed of sound (313.15 K, x2 = 0): 1619.7 m/s
viscosity (313.15 K, x2 = 0): 9.34 mPa·s
speed of sound (318.15 K, x2 = 0): 1607.9 m/s
viscosity (318.15 K, x2 = 0): 7.91 mPa·s
speed of sound (323.15 K, x2 = 0): 1596.1 m/s
viscosity (323.15 K, x2 = 0): 6.75 mPa·s

CCCC[n+]1ccn(C)c1.O=S(=O)([O-])C(F)(F)F + OCCO
speed of sound (298.15 K, x1 = 0.1936): 1517.5 m/s
viscosity (298.15 K, x1 = 0.1936): 17.41 mPa·s
speed of sound (298.15 K, x1 = 0.2985): 1478.8 m/s
viscosity (298.15 K, x1 = 0.2985): 20.69 mPa·s
speed of sound (298.15 K, x1 = 0.3912): 1456.1 m/s
viscosity (298.15 K, x1 = 0.3912): 23.59 mPa·s
speed of sound (298.15 K, x1 = 0.4999): 1437.2 m/s
viscosity (298.15 K, x1 = 0.4999): 26.6 mPa·s
speed of sound (298.15 K, x1 = 0.6055): 1423.5 m/s
viscosity (298.15 K, x1 = 0.6055): 29.8 mPa·s
speed of sound (298.15 K, x1 = 0.7966): 1410.5 m/s
viscosity (298.15 K, x1 = 0.7966): 42 mPa·s
speed of sound (298.15 K, x1 = 0.9035): 1404.8 m/s
viscosity (298.15 K, x1 = 0.9035): 57.9 mPa·s
speed of sound (298.15 K, x1 = 1): 1393.2 m/s
viscosity (298.15 K, x1 = 1): 82.4 mPa·s
speed of sound (303.15 K, x1 = 0.1936): 1505.9 m/s
viscosity (303.15 K, x1 = 0.1936): 14.07 mPa·s
speed of sound (303.15 K, x1 = 0.2985): 1467.3 m/s
viscosity (303.15 K, x1 = 0.2985): 16.81 mPa·s
speed of sound (303.15 K, x1 = 0.3912): 1444.6 m/s
viscosity (303.15 K, x1 = 0.3912): 19.28 mPa·s
speed of sound (303.15 K, x1 = 0.6055): 1412.2 m/s
viscosity (303.15 K, x1 = 0.6055): 24.5 mPa·s
speed of sound (303.15 K, x1 = 0.7966): 1399.2 m/s
viscosity (303.15 K, x1 = 0.7966): 34.3 mPa·s
speed of sound (303.15 K, x1 = 0.9035): 1393.6 m/s
viscosity (303.15 K, x1 = 0.9035): 47 mPa·s
speed of sound (303.15 K, x1 = 1): 1382.8 m/s
viscosity (303.15 K, x1 = 1): 66.7 mPa·s
speed of sound (308.15 K, x1 = 0.0926): 1551.3 m/s
viscosity (308.15 K, x1 = 0.0926): 10.51 mPa·s
speed of sound (308.15 K, x1 = 0.1936): 1494.4 m/s
viscosity (308.15 K, x1 = 0.1936): 11.7 mPa·s
speed of sound (308.15 K, x1 = 0.3912): 1433.2 m/s
viscosity (308.15 K, x1 = 0.3912): 15.95 mPa·s
speed of sound (308.15 K, x1 = 0.6055): 1400.9 m/s
viscosity (308.15 K, x1 = 0.6055): 20.86 mPa·s
speed of sound (308.15 K, x1 = 0.9035): 1382.5 m/s
viscosity (308.15 K, x1 = 0.9035): 38.6 mPa·s
speed of sound (308.15 K, x1 = 1): 1371.7 m/s
viscosity (308.15 K, x1 = 1): 52.9 mPa·s
speed of sound (313.15 K, x1 = 0.0926): 1539.6 m/s
viscosity (313.15 K, x1 = 0.0926): 8.82 mPa·s
speed of sound (313.15 K, x1 = 0.1936): 1482.8 m/s
viscosity (313.15 K, x1 = 0.1936): 9.82 mPa·s
speed of sound (313.15 K, x1 = 0.3912): 1421.9 m/s
viscosity (313.15 K, x1 = 0.3912): 13.48 mPa·s
speed of sound (313.15 K, x1 = 0.6055): 1389.8 m/s
viscosity (313.15 K, x1 = 0.6055): 17.79 mPa·s
speed of sound (313.15 K, x1 = 0.7966): 1376.9 m/s
viscosity (313.15 K, x1 = 0.7966): 24.6 mPa·s
speed of sound (313.15 K, x1 = 0.9035): 1371.5 m/s
viscosity (313.15 K, x1 = 0.9035): 32.3 mPa·s
speed of sound (313.15 K, x1 = 1): 1360.7 m/s
viscosity (313.15 K, x1 = 1): 43.7 mPa·s
speed of sound (318.15 K, x1 = 0.1936): 1471.4 m/s
viscosity (318.15 K, x1 = 0.1936): 8.3 mPa·s
speed of sound (318.15 K, x1 = 0.2985): 1433.2 m/s
viscosity (318.15 K, x1 = 0.2985): 9.91 mPa·s
speed of sound (318.15 K, x1 = 0.3912): 1410.7 m/s
viscosity (318.15 K, x1 = 0.3912): 11.51 mPa·s
speed of sound (318.15 K, x1 = 0.6055): 1378.7 m/s
viscosity (318.15 K, x1 = 0.6055): 15.37 mPa·s
speed of sound (318.15 K, x1 = 0.6922): 1371.2 m/s
viscosity (318.15 K, x1 = 0.6922): 17.42 mPa·s
speed of sound (318.15 K, x1 = 0.7966): 1365.9 m/s
viscosity (318.15 K, x1 = 0.7966): 21.09 mPa·s
speed of sound (318.15 K, x1 = 0.9035): 1360.5 m/s
viscosity (318.15 K, x1 = 0.9035): 27.3 mPa·s
speed of sound (318.15 K, x1 = 1): 1349.9 m/s
viscosity (318.15 K, x1 = 1): 36.3 mPa·s
speed of sound (323.15 K, x1 = 0.0926): 1516.4 m/s
viscosity (323.15 K, x1 = 0.0926): 6.2 mPa·s
speed of sound (323.15 K, x1 = 0.2985): 1421.9 m/s
viscosity (323.15 K, x1 = 0.2985): 8.4 mPa·s
speed of sound (323.15 K, x1 = 0.4999): 1381 m/s
viscosity (323.15 K, x1 = 0.4999): 11.65 mPa·s
speed of sound (323.15 K, x1 = 0.6055): 1367.7 m/s
viscosity (323.15 K, x1 = 0.6055): 13.42 mPa·s
speed of sound (323.15 K, x1 = 0.6922): 1360.3 m/s
viscosity (323.15 K, x1 = 0.6922): 15.17 mPa·s
speed of sound (323.15 K, x1 = 0.9035): 1349.7 m/s
viscosity (323.15 K, x1 = 0.9035): 23.24 mPa·s
speed of sound (323.15 K, x1 = 1): 1338.8 m/s
viscosity (323.15 K, x1 = 1): 30.6 mPa·s
